System: yeast genes (expressed mRNA)
Assay: DNA chip measurement of expressed mRNA of yeast genes after culture with a toxic chemical substance
Assay type: cell-based, Saccharomyces cerevisiae S288C
Summary of the method: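 Yeast S288C, YPD 25° C; toxicant at log phase, 2 h, sublethal growth-inhibiting conc.; no-chemical control. Hot SDS/acetate RNA extraction, oligo-dT mRNA, Cy3/Cy5-dUTP RT. Whole-genome chip, 65° C >12 h. Readout: treated/control intensity ratio, ≥2 significant.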

Compound: COc1cc(CNC(=O)CCCCC=CC(C)C)ccc1O [(12), 8-Methyl-N-vanillyl-6-nonenamide]
- The level of expressed mRNA in the presence of chemical substance/The level of expressed mRNA in the absence of chemical substance (yeast gene YNL092W, cultured two hours with substance): 1.1
- The level of expressed mRNA in the presence of chemical substance/The level of expressed mRNA in the absence of chemical substance (yeast gene YNL104C, metabolism protein genes): 1.1
- The level of expressed mRNA in the presence of chemical substance/The level of expressed mRNA in the absence of chemical substance (yeast gene YNL115C, cultured two hours with substance): 0.8
- The level of expressed mRNA in the presence of chemical substance/The level of expressed mRNA in the absence of chemical substance (yeast gene YNL156C, cultured two hours with substance): 0.9
- The level of expressed mRNA in the presence of chemical substance/The level of expressed mRNA in the absence of chemical substance (yeast gene YNL169C): 1.0
- The level of expressed mRNA in the presence of chemical substance/The level of expressed mRNA in the absence of chemical substance (yeast gene YNL190W, cultured two hours with substance): 1.0
- The level of expressed mRNA in the presence of chemical substance/The level of expressed mRNA in the absence of chemical substance (yeast gene YNL208W, cultured two hours with substance): 0.8
- The level of expressed mRNA in the presence of chemical substance/The level of expressed mRNA in the absence of chemical substance (yeast gene YNL211C, cultured two hours with substance): 3.2
- The level of expressed mRNA in the presence of chemical substance/The level of expressed mRNA in the absence of chemical substance (yeast gene YNL234W, cultured two hours with substance): 1.1
- The level of expressed mRNA in the presence of chemical substance/The level of expressed mRNA in the absence of chemical substance (yeast gene YNL241C (stress protein genes)): 2.0
- The level of expressed mRNA in the presence of chemical substance/The level of expressed mRNA in the absence of chemical substance (yeast gene YNL281W, cultured two hours with substance): 0.7
- The level of expressed mRNA in the presence of chemical substance/The level of expressed mRNA in the absence of chemical substance (yeast gene YNL300W, cultured two hours with substance): 0.8
- The level of expressed mRNA in the presence of chemical substance/The level of expressed mRNA in the absence of chemical substance (yeast gene YNL305C, cultured two hours with substance): 1.1
- The level of expressed mRNA in the presence of chemical substance/The level of expressed mRNA in the absence of chemical substance (yeast gene YNL331C): 0.9
- The level of expressed mRNA in the presence of chemical substance/The level of expressed mRNA in the absence of chemical substance (yeast gene YNR033W, metabolism protein genes): 1.1
- The level of expressed mRNA in the presence of chemical substance/The level of expressed mRNA in the absence of chemical substance (yeast gene YNR064C, cultured two hours with substance): 0.7
- The level of expressed mRNA in the presence of chemical substance/The level of expressed mRNA in the absence of chemical substance (yeast gene YNR068C, cultured two hours with substance): 1.3
- The level of expressed mRNA in the presence of chemical substance/The level of expressed mRNA in the absence of chemical substance (yeast gene YOL031C, cultured two hours with substance): 2.1
- The level of expressed mRNA in the presence of chemical substance/The level of expressed mRNA in the absence of chemical substance (yeast gene YOL032W, cultured two hours with substance): 1.0
- The level of expressed mRNA in the presence of chemical substance/The level of expressed mRNA in the absence of chemical substance (yeast gene YOL036W, cultured two hours with substance): 1.0
- The level of expressed mRNA in the presence of chemical substance/The level of expressed mRNA in the absence of chemical substance (yeast gene YOL047C, cultured two hours with substance): 0.8
- The level of expressed mRNA in the presence of chemical substance/The level of expressed mRNA in the absence of chemical substance (yeast gene YOL058W): 1.3
- The level of expressed mRNA in the presence of chemical substance/The level of expressed mRNA in the absence of chemical substance (yeast gene YOL064C (stress protein genes)): 0.9
- The level of expressed mRNA in the presence of chemical substance/The level of expressed mRNA in the absence of chemical substance (yeast gene YOL071W, cultured two hours with substance): 1.0
- The level of expressed mRNA in the presence of chemical substance/The level of expressed mRNA in the absence of chemical substance (yeast gene YOL082W, cultured two hours with substance): 1.0
- The level of expressed mRNA in the presence of chemical substance/The level of expressed mRNA in the absence of chemical substance (yeast gene YOL083W, cultured two hours with substance): 1.2
- The level of expressed mRNA in the presence of chemical substance/The level of expressed mRNA in the absence of chemical substance (yeast gene YOL117W, cultured two hours with substance): 0.9
- The level of expressed mRNA in the presence of chemical substance/The level of expressed mRNA in the absence of chemical substance (yeast gene YOL126C, metabolism protein genes): 1.1
- The level of expressed mRNA in the presence of chemical substance/The level of expressed mRNA in the absence of chemical substance (yeast gene YOL131W, cultured two hours with substance): 0.9
- The level of expressed mRNA in the presence of chemical substance/The level of expressed mRNA in the absence of chemical substance (yeast gene YOL150C, cultured two hours with substance): 2.9
- The level of expressed mRNA in the presence of chemical substance/The level of expressed mRNA in the absence of chemical substance (yeast gene YOL162W, cultured two hours with substance): 1.4
- The level of expressed mRNA in the presence of chemical substance/The level of expressed mRNA in the absence of chemical substance (yeast gene YOR019W, cultured two hours with substance): 1.0
- The level of expressed mRNA in the presence of chemical substance/The level of expressed mRNA in the absence of chemical substance (yeast gene YOR049C, cultured two hours with substance): 6.7
- The level of expressed mRNA in the presence of chemical substance/The level of expressed mRNA in the absence of chemical substance (yeast gene YOR099W, metabolism protein genes): 1.1
- The level of expressed mRNA in the presence of chemical substance/The level of expressed mRNA in the absence of chemical substance (yeast gene YOR130C, metabolism protein genes): 0.9
- The level of expressed mRNA in the presence of chemical substance/The level of expressed mRNA in the absence of chemical substance (yeast gene YOR197W, cultured two hours with substance): 1.0
- The level of expressed mRNA in the presence of chemical substance/The level of expressed mRNA in the absence of chemical substance (yeast gene YOR248W, cultured two hours with substance): 0.5
- The level of expressed mRNA in the presence of chemical substance/The level of expressed mRNA in the absence of chemical substance (yeast gene YOR336W, metabolism protein genes): 1.0
- The level of expressed mRNA in the presence of chemical substance/The level of expressed mRNA in the absence of chemical substance (yeast gene YOR382W, cultured two hours with substance): 2.8
- The level of expressed mRNA in the presence of chemical substance/The level of expressed mRNA in the absence of chemical substance (yeast gene YPL017C, metabolism protein genes): 1.0
- The level of expressed mRNA in the presence of chemical substance/The level of expressed mRNA in the absence of chemical substance (yeast gene YPL052W, cultured two hours with substance): 1.1
- The level of expressed mRNA in the presence of chemical substance/The level of expressed mRNA in the absence of chemical substance (yeast gene YPL087W, cultured two hours with substance): 1.8
- The level of expressed mRNA in the presence of chemical substance/The level of expressed mRNA in the absence of chemical substance (yeast gene YPL194W (stress protein genes)): 0.9
- The level of expressed mRNA in the presence of chemical substance/The level of expressed mRNA in the absence of chemical substance (yeast gene YPL196W, cultured two hours with substance): 0.9
- The level of expressed mRNA in the presence of chemical substance/The level of expressed mRNA in the absence of chemical substance (yeast gene YPL206C, cultured two hours with substance): 0.8
- The level of expressed mRNA in the presence of chemical substance/The level of expressed mRNA in the absence of chemical substance (yeast gene YPL222W, cultured two hours with substance): 1.3
- The level of expressed mRNA in the presence of chemical substance/The level of expressed mRNA in the absence of chemical substance (yeast gene YPR023C, cultured two hours with substance): 0.9
- The level of expressed mRNA in the presence of chemical substance/The level of expressed mRNA in the absence of chemical substance (yeast gene YPR079W, cultured two hours with substance): 1.0
- The level of expressed mRNA in the presence of chemical substance/The level of expressed mRNA in the absence of chemical substance (yeast gene YPR151C, cultured two hours with substance): 0.9
- The level of expressed mRNA in the presence of chemical substance/The level of expressed mRNA in the absence of chemical substance (yeast gene YPR167C): 1.3

— patent publication US20100041089A1, “IMPROVED METHOD FOR DETECTING CHEMICAL […]” (priority 2006, published 2010)
